# PubChem BioAssay (NCI)
#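 Five concentrations, 48 hours, 96-well plates. GI50: concentration for 50% inhibition of growth. TGI is the concentration that stops growth completely.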
# Key:
# Assay in all cases: NCI anticancer screen, dose series, 48 h
# ACHN renal = test system: ACHN renal
# K-562 leukemia = test system: K-562 leukemia
# COLO 205 colon = test system: COLO 205 colon
# SW-620 colon = test system: SW-620 colon
# HOP-92 NSCLC = test system: HOP-92 NSCLC
# HT29 colon = test system: HT29 colon
# NCI-H460 lung = test system: NCI-H460 lung
# SF-295 CNS = test system: SF-295 CNS
# PC-3 prostate = test system: PC-3 prostate
# UO-31 renal = test system: UO-31 renal
# MALME-3M melanoma = test system: MALME-3M melanoma
# RPMI-8226 leukemia = test system: RPMI-8226 leukemia
# M14 melanoma = test system: M14 melanoma
# MOLT-4 leukemia = test system: MOLT-4 leukemia
# IGROV1 ovarian = test system: IGROV1 ovarian
# NCI-H226 lung = test system: NCI-H226 lung
# CCRF-CEM leukemia = test system: CCRF-CEM leukemia
# HOP-62 NSCLC = test system: HOP-62 NSCLC
# OVCAR-8 ovarian = test system: OVCAR-8 ovarian
# SN12C renal = test system: SN12C renal
# OVCAR-5 ovarian = test system: OVCAR-5 ovarian
# SF-539 CNS = test system: SF-539 CNS
# A498 renal = test system: A498 renal
# OVCAR-3 ovarian = test system: OVCAR-3 ovarian
# RXF 393 renal = test system: RXF 393 renal
# LOX IMVI melanoma = test system: LOX IMVI melanoma
# HL-60(TB) leukemia = test system: HL-60(TB) leukemia
# SR leukemia = test system: SR leukemia
# OVCAR-4 ovarian = test system: OVCAR-4 ovarian
# T-47D breast = test system: T-47D breast
# HS 578T breast = test system: HS 578T breast
# MDA-MB-435 = test system: MDA-MB-435
# SF-268 CNS = test system: SF-268 CNS
# NCI/ADR-RES ovarian = test system: NCI/ADR-RES ovarian
# SNB-75 CNS = test system: SNB-75 CNS
# NCI-H23 lung = test system: NCI-H23 lung
# U251 CNS = test system: U251 CNS
# UACC-62 melanoma = test system: UACC-62 melanoma
# MDA-MB-231 breast = test system: MDA-MB-231 breast
# KM12 colon = test system: KM12 colon
# HCT-15 colon = test system: HCT-15 colon
# SK-OV-3 ovarian = test system: SK-OV-3 ovarian
# SK-MEL-28 melanoma = test system: SK-MEL-28 melanoma
# MCF7 breast = test system: MCF7 breast
# CAKI-1 renal = test system: CAKI-1 renal
# HCC-2998 colon = test system: HCC-2998 colon
# EKVX NSCLC = test system: EKVX NSCLC
# BT-549 breast = test system: BT-549 breast
# A549 NSCLC = test system: A549 NSCLC
# SNB-19 CNS = test system: SNB-19 CNS
# SK-MEL-5 melanoma = test system: SK-MEL-5 melanoma
# 786-0 renal = test system: 786-0 renal
# TK-10 renal = test system: TK-10 renal
# NCI-H522 lung = test system: NCI-H522 lung
# DU-145 prostate = test system: DU-145 prostate
# HCT-116 colon = test system: HCT-116 colon
# SK-MEL-2 melanoma = test system: SK-MEL-2 melanoma
# UACC-257 melanoma = test system: UACC-257 melanoma
smiles,measurement,setting,value
Nc1nc(Cl)nc2c1ncn2C1OC(CO)C(O)C1F (stereo unspecified),GI50,ACHN renal,169 nM
same,TGI,ACHN renal,> 21.2 µM
same,GI50,K-562 leukemia,426 nM
same,TGI,K-562 leukemia,> 100 µM
same,GI50,COLO 205 colon,95.1 nM
same,TGI,COLO 205 colon,> 100 µM
same,GI50,SW-620 colon,839 nM
same,TGI,SW-620 colon,> 100 µM
same,GI50,HOP-92 NSCLC,124 nM
same,TGI,HOP-92 NSCLC,> 68 µM
same,GI50,HT29 colon,445 nM
same,TGI,HT29 colon,> 100 µM
same,GI50,NCI-H460 lung,462 nM
same,TGI,NCI-H460 lung,> 100 µM
same,GI50,SF-295 CNS,1680 nM
same,TGI,SF-295 CNS,13.5 µM
same,GI50,PC-3 prostate,99.7 µM
same,TGI,PC-3 prostate,> 100 µM
same,GI50,UO-31 renal,228 nM
same,TGI,UO-31 renal,> 26 µM
same,GI50,MALME-3M melanoma,195 nM
same,TGI,MALME-3M melanoma,> 46.2 µM
same,GI50,RPMI-8226 leukemia,29.8 µM
same,TGI,RPMI-8226 leukemia,> 100 µM
same,GI50,M14 melanoma,24 nM
same,TGI,M14 melanoma,88.9 nM
same,TGI,MOLT-4 leukemia,> 100 µM
same,GI50,IGROV1 ovarian,> 18 µM
same,TGI,IGROV1 ovarian,> 100 µM
same,GI50,NCI-H226 lung,216 nM
same,TGI,NCI-H226 lung,> 17.3 µM
same,TGI,CCRF-CEM leukemia,424 nM
same,GI50,HOP-62 NSCLC,109 nM
same,TGI,HOP-62 NSCLC,22.4 µM
same,GI50,OVCAR-8 ovarian,29.2 nM
same,TGI,OVCAR-8 ovarian,> 100 µM
same,GI50,SN12C renal,< 43.9 nM
same,GI50,OVCAR-5 ovarian,5.68 µM
same,TGI,OVCAR-5 ovarian,> 100 µM
same,GI50,SF-539 CNS,2070 nM
same,TGI,SF-539 CNS,7.48 µM
same,GI50,A498 renal,284 nM
same,TGI,A498 renal,2550 nM
same,GI50,OVCAR-3 ovarian,> 100 µM
same,TGI,OVCAR-3 ovarian,> 100 µM
same,GI50,RXF 393 renal,12.8 µM
same,TGI,RXF 393 renal,> 100 µM
same,GI50,LOX IMVI melanoma,2180 nM
same,TGI,LOX IMVI melanoma,> 100 µM
same,GI50,HL-60(TB) leukemia,308 nM
same,TGI,HL-60(TB) leukemia,> 100 µM
same,GI50,SR leukemia,1670 nM
same,TGI,SR leukemia,5.26 µM
same,GI50,OVCAR-4 ovarian,> 82.2 µM
same,TGI,OVCAR-4 ovarian,> 100 µM
same,GI50,T-47D breast,10.1 µM
same,TGI,T-47D breast,> 100 µM
same,GI50,HS 578T breast,4.71 µM
same,TGI,HS 578T breast,> 80.7 µM
same,GI50,MDA-MB-435,47.2 nM
same,TGI,MDA-MB-435,> 100 µM
same,GI50,SF-268 CNS,223 nM
same,TGI,SF-268 CNS,21.3 µM
same,GI50,NCI/ADR-RES ovarian,< 16.6 nM
same,TGI,NCI/ADR-RES ovarian,4.98 µM
same,GI50,SNB-75 CNS,731 nM
same,TGI,SNB-75 CNS,> 26.1 µM
same,GI50,NCI-H23 lung,20 nM
same,TGI,NCI-H23 lung,626 nM
same,GI50,U251 CNS,213 nM
same,TGI,U251 CNS,> 100 µM
same,GI50,UACC-62 melanoma,145 nM
same,TGI,UACC-62 melanoma,1700 nM
same,GI50,MDA-MB-231 breast,4.93 µM
same,TGI,MDA-MB-231 breast,> 26.5 µM
same,GI50,KM12 colon,1800 nM
same,TGI,KM12 colon,> 100 µM
same,GI50,HCT-15 colon,5.96 µM
same,TGI,HCT-15 colon,> 100 µM
same,GI50,SK-OV-3 ovarian,355 nM
same,TGI,SK-OV-3 ovarian,> 100 µM
same,GI50,SK-MEL-28 melanoma,> 9.44 µM
same,TGI,SK-MEL-28 melanoma,> 100 µM
same,GI50,MCF7 breast,163 nM
same,TGI,MCF7 breast,> 100 µM
same,GI50,CAKI-1 renal,35.1 nM
same,TGI,CAKI-1 renal,959 nM
same,GI50,HCC-2998 colon,< 30.4 nM
same,GI50,EKVX NSCLC,1460 nM
same,TGI,EKVX NSCLC,> 100 µM
same,GI50,BT-549 breast,664 nM
same,TGI,BT-549 breast,> 37.6 µM
same,GI50,A549 NSCLC,144 nM
same,TGI,A549 NSCLC,> 100 µM
same,GI50,SNB-19 CNS,191 nM
same,TGI,SNB-19 CNS,> 100 µM
same,GI50,SK-MEL-5 melanoma,168 nM
same,TGI,SK-MEL-5 melanoma,> 8.7 µM
same,GI50,786-0 renal,87.6 nM
same,TGI,786-0 renal,13.6 µM
same,GI50,TK-10 renal,550 nM
same,TGI,TK-10 renal,> 83 µM
same,GI50,NCI-H522 lung,> 68.2 µM
same,TGI,NCI-H522 lung,> 100 µM
same,GI50,DU-145 prostate,278 nM
same,GI50,HCT-116 colon,32.2 nM
same,TGI,HCT-116 colon,> 100 µM
same,GI50,SK-MEL-2 melanoma,> 100 µM
same,TGI,SK-MEL-2 melanoma,> 100 µM
same,GI50,UACC-257 melanoma,4.17 µM
same,TGI,UACC-257 melanoma,> 100 µM
